How the values were obtained:
[1] = system: primary cultured cells of mouse fetus-derived dorsal root ganglia (DRGs); assay: Suppression of axonal degeneration after axotomy in DRG explant culture; type: cell-based; details: Mus musculus; minimum concentration at which axonal degeneration was suppressed (DI 0.3 or less); 24 hours after axotomy; read-out: Evaluation on protection against degeneration
Method in brief: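 Embryonic ICR mouse DRG explants were cultured 7–8 days in nicotinamide-free neuronal medium with NGF, then axotomized by removing the cell bodies. Compound (100 pM–10 µM final, 0.1% DMSO) was added within 30 min, and neurites were imaged 24 h later. The result is the lowest concentration giving degeneration index ≤0.3.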

[2] = biological target: T1, nicotinamide phosphoribosyl transferase (NAMPT) (Homo sapiens, UniProt P43490); assay: NAMPT activity measurement (NMN fluorescence detection); type: biochemical; details: NAMPT recombinant protein; 10 µM Nam
T1 construct: purchased Medical & Biological Laboratories Co., Ltd. (MBL)
Method in brief: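 Recombinant NAMPT reacted with 10 µM Nam, 0.5 µM PRPP, 2 µM ATP in Tris pH 7.4 buffer with MgCl2, DTT, BSA; product NMN quantified by fluorescence (ex 421/em 480 nm) after derivatization with 2-acetylbenzofuran. Compounds at 3 nM–10 µM; control-normalized signal used for IC50.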

[3] = Pharmacokinetic evaluation after single iv and po administration to mice; type: in vivo, C57BL/6J male mice; details: for AUC(0-inf) / AUC(0-t) / C0 / half-life / clearance / Vd / Cmax / Tmax: male, C57BL/6J, mouse, plasma; for clearance: read-out: CLtot (converted); for Vd: read-out: Vss; for volume of distribution: result in words
Method: The concentrations of compound 35 and its metabolites in plasma were measured, and oral absorbability (bioavailability) was evaluated. Systemic clearance was calculated for the iv administration, and pharmacokinetic features were determined.
The concentrations of compound 76 and its metabolites in plasma were measured, and oral absorbability (bioavailability) was evaluated. Systemic clearance was calculated for the iv administration, and pharmacokinetic features were determined.
The concentration of compound 105 in plasma was measured, and oral absorbability (bioavailability: BA) was evaluated. A half-life, the volume of distribution in a stationary state, and systemic clearance, and the like were calculated for the iv administration, and pharmacokinetic features were determined.

[4] = 1 mg/kg, iv 1 mg/5 ml/kg single dose
[5] = 10 mg/kg, po 10 mg/10 ml/kg single dose

T1 sequence (P43490 whole entry, species assumed): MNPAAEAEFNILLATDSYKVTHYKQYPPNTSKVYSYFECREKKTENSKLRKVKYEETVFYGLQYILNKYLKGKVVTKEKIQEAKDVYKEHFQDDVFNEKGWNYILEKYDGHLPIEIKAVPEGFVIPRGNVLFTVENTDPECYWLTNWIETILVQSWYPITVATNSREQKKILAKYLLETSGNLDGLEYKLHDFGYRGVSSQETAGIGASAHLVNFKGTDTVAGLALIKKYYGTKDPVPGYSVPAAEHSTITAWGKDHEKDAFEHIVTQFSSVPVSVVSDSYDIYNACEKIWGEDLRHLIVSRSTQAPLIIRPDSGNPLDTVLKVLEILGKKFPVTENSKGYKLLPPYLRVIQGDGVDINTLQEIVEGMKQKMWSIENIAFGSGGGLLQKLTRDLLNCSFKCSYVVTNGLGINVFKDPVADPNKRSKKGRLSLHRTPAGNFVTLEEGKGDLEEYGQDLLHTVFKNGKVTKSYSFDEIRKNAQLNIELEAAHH

Row | Evaluation on NAMPT inhibitory [2] | AUC(0-inf) [3, 4] [ng·h/mL] | AUC(0-t) [3, 4] [ng·h/mL] | C0 [3, 4] [ng/mL] | half-life [3, 4] [h] | clearance [3, 4] [mL/min/kg] | Vd [3, 4] [L/kg] | AUC(0-inf) [3, 5] [ng·h/mL] | AUC(0-t) [3, 5] [ng·h/mL] | Cmax [3, 5] [ng/mL] | Tmax [3, 5] [h] | half-life [3, 5] [h] | BA ([3]; po 10 mg/10 ml/kg vs iv 1 mg/5 ml/kg, oral absorbability (bioavailability)) [%] | SMILES | minimal effective concentration [1] [µM] | volume of distribution [3]
1 | ○ | 234 | 228 | 1600 | 1.9 | 71.4 | 1.57 | 297 | 293 | 501 | 0.25 | 1.89 | – | O=C(NCCCOCCOCCCNC(=O)c1cccnc1)c1cccnc1 [compound 35] | ≤ 0.01 | large as compared with the amount of intercellular fluid
2 | ○ | 408 | 391 | 1050 | 2.81 | 40.9 | 3.14 | 2420 | 2410 | 2520 | 0.25 | 4.13 | – | O=C(NCc1ccc(NC(=O)c2ccccc2)nc1)c1cccnc1 [compound 105] | ≤ 0.01 | large as compared with the amount of intercellular fluid
3 | ○ | 1160 | 1160 | 1940 | 1.14 | 14.6 | 0.89 | 14200 | 14100 | 9850 | 0.25 | 3.21 | 124 | CC(C)(C)C(=O)Nc1ccc(CNC(=O)c2cccnc2)cn1 [compound 76] | ≤ 0.01 | large

From EP4793271A1, “NEUROPROTECTIVE AGENT” (National Center of Neurology and Psychiatry, priority 2023, dated 2025)
